According to US9765056B2, “Indole and pyrrole compounds, a process for their preparation and pharmaceutical compositions containing them” (LES LABORATOIRES SERVIER, priority 2013, dated 2017):
Counter-ions that a name gives are not always drawn.

Legend:
Bcl-2 protein = Bcl-2 protein (histag-Bcl-2, UniProtKB P10415) (Homo sapiens (Human), UniProt P10415); test: Inhibition of Bcl-2 by the fluorescence polarisation technique; assay type: binding; conditions: fluorescence polarisation test; method A, or method B where underlined (underlining not visible); read-out: IC50 (nM) Bcl-2 FP
Chain of Bcl-2 protein (P10415 whole entry): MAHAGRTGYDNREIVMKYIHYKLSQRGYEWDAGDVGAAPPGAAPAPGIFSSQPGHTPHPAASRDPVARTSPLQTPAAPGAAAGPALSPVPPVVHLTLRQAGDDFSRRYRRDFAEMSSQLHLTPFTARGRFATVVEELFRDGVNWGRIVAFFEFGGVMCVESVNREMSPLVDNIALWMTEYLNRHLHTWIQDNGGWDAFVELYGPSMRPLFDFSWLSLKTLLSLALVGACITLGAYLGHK
Excerpt: Inhibition of Bcl-2 by the fluorescence polarisation technique

[1] = tested on: RS4;11 leukaemia tumour line; test: In vitro cytotoxicity, Microculture Tetrazolium Assay (MTT); assay type: cell-based; conditions: Homo sapiens; RS4;11 cells, 48 hours exposure
Procedure: The cytotoxicity studies were carried out on the RS4;11 leukaemia tumour line.
The cells are distributed onto microplates and exposed to the test compounds for 48 hours. The cell viability is then quantified by a colorimetric assay, the Microculture Tetrazolium Assay (Cancer Res., 1987, 47, 939-942).

[2] = tested on: cleaved form of caspase 3; test: Quantification of the cleaved form of caspase 3 in vivo (MSD ELISA) in RS4;11 xenograft tumour lysates; set-up: species or system mice (SCID strain); conditions: oral route
Procedure: Quantification of the Cleaved Form of Caspase 3 In Vivo
The ability of the compounds of the invention to activate caspase 3 is evaluated in a xenograft model of RS4;11 leukaemia cells.
1×10^7 RS4;11 cells are grafted subcutaneously into immunosuppressed mice (SCID strain). 25 to 30 days after the graft, the animals are treated orally with the various compounds. After treatment, the tumour masses are recovered (after a time period T) and lysed, and the cleaved (activated) form of caspase 3 is quantified in the tumour lysates.
This quantification is carried out using the “Meso Scale Discovery (MSD) ELISA platform” test, which specifically assays the cleaved form of caspase 3. It is expressed in the form of an activation factor corresponding to the ratio between the quantity of cleaved caspase 3 in the treated mice divided by the quantity of cleaved caspase 3 in the control mice.

[3] = 25 mg/kg, tumour removed after 2 h

SMILES	IC50 (Bcl-2 protein) [nM]	IC50 [1] [nM]	Activation factor ± SEM (versus control), cleaved caspase 3 MSD test [2, 3]	Activation factor ± SEM (versus control), cleaved caspase 3 MSD test ([2]; 125 mg/kg, tumour removed after 2 h)	Activation factor ± SEM (versus control), cleaved caspase 3 MSD test ([2]; 100 mg/kg, tumour removed after 16 h)
Cc1c(C(=O)N(c2ccc(O)cc2)c2cc(C#N)n(C)c2C)cn(-c2cc(Cl)ccc2C(=O)N2Cc3ccccc3C[C@H]2CN2CCOCC2)c1C.Cl [Example 211, 1-(5-Chloro-2-{[(3S)-3-(morpholin-4-ylmethyl)-3,4-dihydroisoquinolin-2(1H)-yl]carbonyl}phenyl)-N-(5-cyano-1,2-dimethyl-1H-pyrrol-3-yl)-N-(4-hydroxyphenyl)-4,5-dimethyl-1H-pyrrole-3-carboxamide hydrochloride]	3.7	46.9	94.7 ± 9.8	–	–
Cc1c(C(=O)N(c2ccc(O)cc2)c2cnc3c(c2)CCN3C)cn(-c2cc(Cl)ccc2C(=O)N2Cc3ccccc3C[C@H]2CN2CCOCC2)c1C.Cl [Example 210, 1-(5-Chloro-2-{[(3S)-3-(morpholin-4-ylmethyl)-3,4-dihydroisoquinolin-2(1H)-yl]carbonyl}phenyl)-N-(4-hydroxyphenyl)-4,5-dimethyl-N-(1-methyl-2,3-dihydro-1H-pyrrolo[2,3-b]pyridin-5-yl)-1H-pyrrole-3-carboxamide hydrochloride]	3.1	64.7	–	36.3 ± 13.3	–
Cl.O=C(c1cn(-c2cc3c(cc2C(=O)N2Cc4ccccc4C[C@H]2CN2CCOCC2)OCO3)c2ccccc12)N(c1ccccc1)c1ccc(O)cc1 [Example 184, N-(4-Hydroxyphenyl)-1-{6-[(3S)-3-(morpholin-4-ylmethyl)-1,2,3,4-tetrahydroisoquinoline-2-carbonyl]-2H-1,3-benzodioxol-5-yl}-N-phenyl-1H-indole-3-carboxamide hydrochloride]	14.1	154	–	–	15.1
Cl.Cn1ccc2cc(N(C(=O)c3cn(-c4cc5c(cc4C(=O)N4Cc6ccccc6C[C@H]4CN4CCOCC4)OCO5)c4c3CCCC4)c3ccc(O)cc3)cnc21 [Example 207, N-(4-Hydroxyphenyl)-N-(1-methyl-1H-pyrrolo[2,3-b]pyridin-5-yl)-1-(6-{[(3S)-3-(morpholin-4-ylmethyl)-3,4-dihydroisoquinolin-2(1H)-yl]carbonyl}-1,3-benzodioxol-5-yl)-4,5,6,7-tetrahydro-1H-indole-3-carboxamide hydrochloride]	20.3	22.2	14.6 ± 4.4	–	–
O=C(c1cn(-c2cc(Cl)ccc2C(=O)N2Cc3ccccc3C[C@H]2CN2CCOCC2)c2ccccc12)N(c1ccccc1)c1ccc(O)cc1 [Example 186, 1-{5-Chloro-2-[(3S)-3-(morpholin-4-ylmethyl)-1,2,3,4-tetrahydroisoquinoline-2-carbonyl}phenyl]-N-(4-hydroxyphenyl)-N-phenyl-1H-indole-3-carboxamide hydrochloride]	23.5	626	–	–	–
Cc1cc(C(=O)N(c2ccccc2)c2ccccc2)cn1-c1ccccc1C(=O)N1Cc2ccccc2C[C@H]1CN [Example 5, 1-(2-{[(3S)-3-(Aminomethyl)-3,4-dihydroisoquinolin-2(1H)-yl]-carbonyl}phenyl)-5-methyl-N,N-diphenyl-1H-pyrrole-3-carboxamide trifluoroacetate]	213	2590	–	–	–
CCCCN(CCCC)C(=O)c1cn(-c2ccc(NC(=O)CSc3ccccc3)cc2C(=O)N2Cc3ccccc3C[C@H]2CN2CCN(C)CC2)c2ccccc12 [Example 199, N,N-Dibutyl-1-{2-[(3S)-3-[(4-methylpiperazin-1-yl)methyl]-1,2,3,4-tetrahydroisoquinoline-2-carbonyl]-4-[2-(phenylsulphanyl)acetamido]phenyl}-1H-indole-3-carboxamide]	57.7	2360	–	–	–
Cc1cc(C(=O)N(c2ccccc2)c2ccc(O)cc2)cn1-c1cc(F)c(F)cc1C(=O)N1Cc2ccccc2C[C@H]1CN1CCN(C)CC1 [Example 20, 1-(4,5-Difluoro-2-{[(3S)-3-[(4-methylpiperazin-1-yl)methyl]-3,4-dihydroisoquinolin-2(1H)-yl]carbonyl}phenyl)-N-(4-hydroxyphenyl)-5-methyl-N-phenyl-1H-pyrrole-3-carboxamide]	74.3	900	–	–	–
Cc1cc(C(=O)N(c2ccc(O)cc2)c2ccc3c(c2)CCN3C)cn1-c1cc2c(cc1C(=O)N1Cc3ccccc3C[C@H]1C)OCO2 [Example 115, N-(4-Hydroxyphenyl)-5-methyl-N-(1-methyl-2,3-dihydro-1H-indol-5-yl)-1-(6-{[(3R)-3-methyl-3,4-dihydroisoquinolin-2(1H)-yl]carbonyl}-1,3-benzodioxol-5-yl)-1H-pyrrole-3-carboxamide hydrochloride]	14.5	272	–	–	–
COc1ccc(C(=O)N2Cc3ccccc3C[C@H]2CN2CCN(C)CC2)c(-n2cc(C(=O)N(c3ccccc3)c3ccc(O)cc3)c3ccccc32)c1 [Example 168, N-(4-Hydroxyphenyl)-1-{5-methoxy-2-[(3S)-3-[(4-methylpiperazin-1-yl)methyl]-1,2,3,4-tetrahydroisoquinoline-2-carbonyl]phenyl}-N-phenyl-1H-indole-3-carboxamide dihydrochloride]	11.4	188	–	–	–
NC[C@@H]1Cc2ccccc2CN1C(=O)c1cc(NC(=O)COc2ccccc2)ccc1-n1nc(C(=O)N(c2ccccc2)c2ccccc2)c2ccccc21 [Example 144, 1-{2-[(3S)-3-(Aminomethyl)-1,2,3,4-tetrahydroisoquinoline-2-carbonyl]-4-(2-phenoxyacetamido)phenyl}-N,N-diphenyl-1H-indazole-3-carboxamide]	35	1380	–	–	–
CN1CCN(C[C@@H]2Cc3ccccc3CN2C(=O)c2cc3c(cc2-n2cc(C(=O)N(c4ccccc4)c4ccc(O)c(F)c4)c4ccccc42)OCO3)CC1 [Example 34, N-(3-Fluoro-4-hydroxyphenyl)-1-(6-{[(3S)-3-[(4-methylpiperazin-1-yl)methyl]-3,4-dihydroisoquinolin-2(1H)-yl]carbonyl}-1,3-benzodioxol-5-yl)-N-phenyl-1H-indole-3-carboxamide]	7.7	133	–	–	–
